From US20250197425A1, “2,6,9-TRISUBSTITUTED PURINES” (ASTRAZENECA AB, priority 2022, published 2025)

What was measured:
CDK2:CCNE1 = CDK2:CCNE1 (Homo sapiens (Human), UniProt P24941); assay: NanoBRET assay in MCF-7 cells, CDK2; format: cell-based; conditions: transfected MCF-7 cells, 2 hours, n = 1 or average
Outline: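 In live MCF-7 cells, compound added followed by NanoBRET TE Tracer K-9 (stock 200 μM) for CDK2, 2 h at 37° C, 5% CO2.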

[1] = test system: NPM phosphorylation (Thr199, CDK2-cyclin E complex); assay: NPM phosphorylation imaging assay in MCF-7 cells; format: cell-based; conditions: Homo sapiens, MCF7, 2 h, 4N DNA cells
Outline: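 MCF-7 cells were fixed, permeabilised and immunostained, then imaged for phospho-NPM (Thr199), a CDK2-cyclin E site. Analysis was gated on 4N-DNA cells by Hoechst staining. Signals were normalised to controls and fitted for IC50.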

[2] = target: 379 non-CDK kinase (or non-CDK kinase-complex) targets; assay: Kinase profiling (SelectScreen, ThermoFisher); format: biochemical; conditions: compared with Compound 6
From the text: Test compounds were profiled against a broad panel of kinases at ThermoFisher Scientific using the SelectScreen Kinase Profiling Services. Each kinase assay used one of the following assay technology protocols: • 1) Z-LYTE™ Screening Protocol and Assay Conditions (Revised 23 Jan. 2018 version) available at http://assets.thermofisher.com/TFS-Assets/BID/Methods-&-Protocols/20180123_SSBK_Customer_Protocol_and_Assay_Conditions.pdf; • 2) Adapta™ Screening Protocol and Assay Conditions (Revised 23 Jan. 2018 version) available at http://assets.thermofisher.com/TFS-Assets/BID/Methods-&-Protocols/20180123_SSBK_Adapta_Customer_Protocol_and_Assay_Conditions.pdf; or • 3) LanthaScreen™ Eu Kinase Binding Assay Screening Protocol and Assay Conditions (Revised 23 Jan. 2018 version) available at http://assets.thermofisher.com/TFS-Assets/BID/Methods-&-Protocols/20180123_SSBK_LanthaScreen_Binding_Customer_Protocol_and_Assay_Co nditions.pdf.

CDK1:CCNB1 = CDK1:CCNB1 (Homo sapiens (Human), UniProt P06493); assay: NanoBRET assay in MCF-7 cells, CDK1; format: cell-based; conditions: NanoBRET, transfected MCF-7 cells, 2 hours; n = 1 or average; read-out: CDK1 IC50
Outline: (§1)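 Transiently transfected MCF-7 cells expressing CDK1:CCNB1 or CDK4:CCND1 were treated with compound plus tracer (CDK1: Tracer K-9, 400 μM stock; CDK4: Tracer K-7, 100 μM stock) for 2 h at 37 °C.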

CDK4:CCND1 = CDK4:CCND1 (Homo sapiens (Human), UniProt P11802); assay: NanoBRET assay in MCF-7 cells, CDK4; format: cell-based; conditions: NanoBRET, transfected MCF-7 cells, 2 hours; n = 1 or average; read-out: CDK4 IC50
Outline: as §1

[3] = test system: POLR2A Ser2 phosphorylation (CDK9); assay: POLR2A Ser2 phosphorylation imaging assay in MCF-7 cells; format: cell-based; conditions: Homo sapiens, MCF7, 2 h, MCF-7 cells, 2 hours; read-out: POLR2A Ser2 phosphorylation IC50
Outline: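 MCF-7 cells were fixed, permeabilised and immunostained for POLR2A phospho-Ser2, then imaged by high-content microscopy. Levels were normalised to controls and IC50 values derived.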

Chain of CDK1:CCNB1 (P06493 whole entry): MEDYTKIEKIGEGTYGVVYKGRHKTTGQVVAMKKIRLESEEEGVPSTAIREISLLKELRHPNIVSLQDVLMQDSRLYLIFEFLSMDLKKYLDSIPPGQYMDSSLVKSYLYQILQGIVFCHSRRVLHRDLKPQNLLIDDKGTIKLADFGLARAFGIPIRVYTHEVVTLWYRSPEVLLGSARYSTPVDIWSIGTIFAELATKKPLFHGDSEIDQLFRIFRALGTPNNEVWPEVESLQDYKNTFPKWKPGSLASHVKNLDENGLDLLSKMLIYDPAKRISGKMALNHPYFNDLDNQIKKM
Chain of CDK1:CCNB1 (P14635 whole entry partner): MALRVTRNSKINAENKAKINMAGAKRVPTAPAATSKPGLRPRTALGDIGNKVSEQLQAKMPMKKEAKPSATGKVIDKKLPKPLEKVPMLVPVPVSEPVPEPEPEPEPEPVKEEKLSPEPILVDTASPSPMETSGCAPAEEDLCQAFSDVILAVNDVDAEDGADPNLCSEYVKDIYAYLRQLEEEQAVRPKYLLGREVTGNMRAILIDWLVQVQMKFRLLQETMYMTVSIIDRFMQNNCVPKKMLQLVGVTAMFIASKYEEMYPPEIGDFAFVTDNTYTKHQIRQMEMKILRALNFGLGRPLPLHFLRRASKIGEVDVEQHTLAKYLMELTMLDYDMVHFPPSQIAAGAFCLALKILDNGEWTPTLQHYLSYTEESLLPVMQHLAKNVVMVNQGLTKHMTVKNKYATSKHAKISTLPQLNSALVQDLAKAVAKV
Chain of CDK4:CCND1 (P11802 whole entry): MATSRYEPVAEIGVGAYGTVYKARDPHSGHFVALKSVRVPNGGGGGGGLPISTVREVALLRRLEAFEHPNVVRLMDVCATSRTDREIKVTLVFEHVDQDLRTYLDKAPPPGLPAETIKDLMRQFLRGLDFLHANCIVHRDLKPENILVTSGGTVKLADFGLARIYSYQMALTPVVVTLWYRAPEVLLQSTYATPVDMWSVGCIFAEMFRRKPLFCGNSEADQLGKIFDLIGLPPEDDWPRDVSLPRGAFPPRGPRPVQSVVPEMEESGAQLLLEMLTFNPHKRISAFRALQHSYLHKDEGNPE
Chain of CDK4:CCND1 (P24385 whole entry partner): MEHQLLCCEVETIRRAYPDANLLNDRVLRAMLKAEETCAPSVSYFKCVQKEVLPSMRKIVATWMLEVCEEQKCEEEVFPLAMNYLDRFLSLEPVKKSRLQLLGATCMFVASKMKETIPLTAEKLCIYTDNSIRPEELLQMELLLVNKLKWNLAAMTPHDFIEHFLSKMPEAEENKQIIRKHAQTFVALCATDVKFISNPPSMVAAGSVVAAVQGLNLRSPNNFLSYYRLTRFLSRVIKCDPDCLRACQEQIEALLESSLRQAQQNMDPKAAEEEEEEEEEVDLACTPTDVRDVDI

Row | SMILES | IC50 (CDK2:CCNE1) | IC50 [1] | kinase inhibition profile [2] | IC50 (CDK1:CCNB1) | IC50 (CDK4:CCND1) | IC50 [3]
1 | CCn1cnc2c(N[C@H]3CCN(S(=O)(=O)NC)C3)nc(-c3cccc4c3CC[C@]4(C)O)nc21 (relative stereo) [Example 3, (S)-3-((9-ethyl-2-((R*)-1-hydroxy-1-methyl-2,3-dihydro-1H-inden-4-yl)-9H-purin-6-yl)amino)-N-methylpyrrolidine-1-sulfonamide] | 18 nM | 233 nM | broadly similar kinase inhibition profiles to Compound 6 | 636 nM | 12.8 µM | 6.5 µM
2 | CCNS(=O)(=O)N1CC[C@H](Nc2nc(N[C@@H](CC)[C@@H](C)O)nc3c2ncn3C)C1 [Example 53, (S)—N-ethyl-3-((2-(((2R,3S)-2-hydroxypentan-3-yl)amino)-9-methyl-9H-purin-6-yl)amino)pyrrolidine-1-sulfonamide] | 43 nM | 241 nM | broadly similar kinase inhibition profiles to Compound 6 | 1800 nM | > 29.7 µM | > 30 µM
3 | CCNS(=O)(=O)N1CC[C@H](Nc2nc(N[C@@H](CO)C3CC3)nc3c2ncn3C)C1 [Example 19, (S)-3-((2-(((R)-1-cyclopropyl-2-hydroxyethyl)amino)-9-methyl-9H-purin-6-yl)amino)-N-ethylpyrrolidine-1-sulfonamide] | 27 nM | 133 nM | broadly similar kinase inhibition profiles to Compound 6 | 342 nM | 5.8 µM | 17.6 µM
4 | CCn1cnc2c(N[C@@H]3CN(S(=O)(=O)c4ncc[nH]4)C[C@H]3F)nc(N[C@@H](CO)C3CC3)nc21 (relative stereo) [Example 17, (R)-2-((6-(((3R*,4R*)-1-((1H-imidazol-2-yl)sulfonyl)-4-fluoropyrrolidin-3-yl)amino)-9-ethyl-9H-purin-2-yl)amino)-2-cyclopropylethan-1-ol] | 9 nM | 11 nM | – | 114 nM | 1.2 µM | 3.9 µM
